According to US8940768B2, “Antifungal triazole derivatives” (Daewoong Pharmaceutical Co., Ltd., priority 2010, dated 2015):
≈ marks a conversion by molar mass, not a printed value.

Experiments:
Format in all cases: cell-based
[1] = tested on: Candida krusei; assay: in vitro antifungal activity (MIC80), Candida krusei; conditions: Pichia kudriavzevii; 80% growth inhibition vs negative control; RPMI 1640; read 24 hrs after application; read-out: Antifungal Activity (MIC80) C. krusei
Method: (§1) The compounds of the present invention were evaluated for inhibitory activity against yeast molds including Candida albicans, Candida glabrata, Candida krusei, Candida tropicalis, Candida parapsilosis, and Cryptococcus neoformans, and filamentous fungi including Aspergillus fumigatus, Trichophyton mentagrophytes (obtained from KCTC (Korean Collection for Type Cultures), and Trichophyton rubrum (obtained from KCCM (Korean Culture Center of Microorganisms). All the strains, but Trichophyton mentagrophytes and Trichophyton rubrum, were purchased from the ATCC (American Type Culture Collection).
(§2) Of the strains used in this test, Candida albicans, Candida glabrata, Candida krusei, Candida tropicalis, Candida parapsilosis, Trichophyton mentagrophytes and Trichophyton rubrum were inoculated into sabouraud dextrose agars (Difco, BD-0109), Cryptococcus neoformans into a yeast mold agar (YM agar, Difco, 271210), and Aspergillus fumigatus into a malt extract agar (Difco, 211220), before incubation at 35° C. for two to ten days.
(§3) From the agars on which the yeast molds were grown, single colonies were picked up, and each was sufficiently suspended in 5 mL of already prepared, 0.85% sterile saline. After correction of the absorbance to 0.108 at 530 nm, each of the suspensions was diluted to a ratio of 1:50 in an RPMI (Roswell park memorial institute) 1640 medium and then to a ratio of 1:20 to prepare an inoculum having a cell density of from 1.0×10^3 to 5.0×10^3CFU/mL. The cell density was adjusted into […]˜5.0×10^4 CFU/mL for Aspergillus fumigates and 0.4×10^4˜5.0×10^4 CFU/mL for both Trichophyton mentagrophytes and Trichophyton rubrum.
(§4) The antifungal agent samples were prepared by diluting the active compounds in an RPMI 1640 medium to a serial density of from 0.0156 to 32 μg/mL. In this context, dimethylsulfoxide (DMSO) was used as an excipient at a final concentration of 1% (v/v). The serial dilutions were aliquoted at a volume of 0.1 mL and applied to 0.1 mL of the aliquots of each inoculum, followed by incubation.
(§5) With the naked eyes, an observation was made of all of the yeast molds, but Cryptococcus neoformans 24 hrs after the application, Cryptococcus neoformans and Aspergillus fumigatus 48 hrs after the application, and Trichophyton mentagrophytes and Trichophyton rubrum five days after the application to examine whether the fungi grew or not. In addition, Alamarblue™ as used to determine the concentrations of the compounds of the present invention at which the growth of the microorganisms was 80% inhibited compared to that of the negative control. All experiments were performed in duplicate for each of the test concentration groups.

[2] = tested on: Candida tropicalis; assay: in vitro antifungal activity (MIC80), Candida tropicalis; conditions: 80% growth inhibition vs negative control, RPMI 1640, read 24 hrs after application, read-out: Antifungal Activity (MIC80) C. tropicalis
Method: as §1, §2, §3, §4, §5

[3] = tested on: Aspergillus fumigatus; assay: in vitro antifungal activity (MIC80), Aspergillus fumigatus; conditions: 80% growth inhibition vs negative control, RPMI 1640, read 48 hrs after application
Method: as §1, §2, §3, §4, §5

[4] = tested on: Cryptococcus neoformans; assay: in vitro antifungal activity (MIC80), Cryptococcus neoformans; conditions: 80% growth inhibition vs negative control, RPMI 1640, read 48 hrs after application
Method: as §1, §2, §3, §4, §5

[5] = tested on: Candida glabrata; assay: in vitro antifungal activity (MIC80), Candida glabrata; conditions: Nakaseomyces glabratus, 24 h, read-out: Antifungal Activity (MIC80) C. grabrata
Method: as §1, §2, §3, §4, §5

[6] = tested on: Candida albicans; assay: in vitro antifungal activity (MIC80), Candida albicans; conditions: 80% growth inhibition vs negative control, RPMI 1640, read 24 hrs after application, Table 1, read-out: Antifungal Activity (MIC80) C. albicans
Method: as §1, §2, §3, §4, §5

[7] = tested on: Candida parapsilosis; assay: in vitro antifungal activity (MIC80), Candida parapsilosis; conditions: Lodderomyces parapsilosis; 80% growth inhibition vs negative control; RPMI 1640; read 24 hrs after application; read-out: Antifungal Activity (MIC80) C. parapsilosis
Method: as §1, §2, §3, §4, §5

[8] = tested on: Trichophyton rubrum; assay: in vitro antifungal activity (MIC80), Trichophyton rubrum; conditions: 120 h, 80% growth inhibition vs negative control, RPMI 1640, read five days after application
Method: as §1, §2, §3, §4, §5

[9] = tested on: Trichophyton mentagrophytes; assay: in vitro antifungal activity (MIC80), Trichophyton mentagrophytes; conditions: 120 h, 80% growth inhibition vs negative control, RPMI 1640, read five days after application
Method: as §1, §2, §3, §4, §5

Compound	MIC80 [1]	MIC80 [2]	MIC80 [3]	MIC80 [4]	MIC80 [5]	MIC80 [6]	MIC80 [7]	MIC80 [8]	MIC80 [9]
C[C@@H](N1CCC(Oc2ncc(Br)cn2)CC1)[C@](O)(Cn1cncn1)c1ccc(F)cc1F [Example 32, (2R,3R)-3-(4-((5-bromopyrimidin-2-yl)oxy)piperidin-1-yl)-2-(2,4-difluorophenyl)-1-(1H-1,2,4-triazol-1-yl)butan-2-ol]	0.125 µg/mL (≈ 0.245 µM)	≤ 0.015 µg/mL	≤ 0.125 µg/mL	≤ 0.015 µg/mL	0.125 µg/mL (≈ 0.245 µM)	≤ 0.015 µg/mL	≤ 0.015 µg/mL	0.031 µg/mL (≈ 0.0609 µM)	≤ 0.125 µg/mL
C[C@@H](N1CCC(Nc2ccc(Cl)cc2)CC1)[C@](O)(Cn1cncn1)c1ccc(F)cc1F [Example 34, (2R,3R)-3-(4-((4-chlorophenyl)amino)piperidin-1-yl)-2-(2,4-difluorophenyl)-1-(1H-1,2,4-triazol-1-yl)butan-2-ol]	0.031 µg/mL (≈ 0.0671 µM)	≤ 0.015 µg/mL	≤ 0.125 µg/mL	≤ 0.015 µg/mL	0.125 µg/mL (≈ 0.271 µM)	≤ 0.015 µg/mL	≤ 0.015 µg/mL	≤ 0.125 µg/mL	≤ 0.125 µg/mL
C[C@@H](N1CCC(Nc2ccc(Cl)cn2)CC1)[C@](O)(Cn1cncn1)c1ccc(F)cc1F [Example 59, (2R,3R)-3-(4-((5-chloropyridin-2-yl)-amino)piperidin-1-yl)-2-(2,4-difluorophenyl)-1-(1H-1,2,4-triazol-1-yl)butan-2-ol]	0.062 µg/mL (≈ 0.134 µM)	0.125 µg/mL (≈ 0.27 µM)	0.25 µg/mL (≈ 0.54 µM)	≤ 0.015 µg/mL	0.25 µg/mL (≈ 0.54 µM)	≤ 0.015 µg/mL	≤ 0.015 µg/mL	≤ 0.125 µg/mL	≤ 0.125 µg/mL
C[C@@H](NC1CCN(c2ccc(F)cc2)CC1)[C@](O)(Cn1cncn1)c1ccc(F)cc1F [Example 125, (2R,3R)-2-(2,4-difluorophenyl)-3-((1-(4-fluorophenyl)piperidin-4-yl)amino)-1-(1H-1,2,4-triazol-1-yl)butan-2-ol]	0.062 µg/mL (≈ 0.139 µM)	0.031 µg/mL (≈ 0.0696 µM)	0.25 µg/mL (≈ 0.561 µM)	≤ 0.015 µg/mL	0.125 µg/mL (≈ 0.281 µM)	≤ 0.015 µg/mL	≤ 0.015 µg/mL	≤ 0.125 µg/mL	≤ 0.125 µg/mL
C[C@@H](NC1CCN(c2ccc(Cl)cc2)CC1)[C@](O)(Cn1cncn1)c1ccc(F)cc1F [Example 128, (2R,3R)-3-((1-(4-chlorophenyl)piperidin-4-yl)amino)-2-(2,4-difluorophenyl)-1-(1H-1,2,4-triazol-1-yl)butan-2-ol]	≤ 0.015 µg/mL	0.031 µg/mL (≈ 0.0671 µM)	0.25 µg/mL (≈ 0.541 µM)	≤ 0.015 µg/mL	0.062 µg/mL (≈ 0.134 µM)	≤ 0.015 µg/mL	0.031 µg/mL (≈ 0.0671 µM)	≤ 0.125 µg/mL	0.015 µg/mL (≈ 0.0325 µM)
C[C@@H](NC1CCN(c2ncc(Br)cn2)CC1)[C@](O)(Cn1cncn1)c1ccc(F)cc1F [Example 153, (2R,3R)-3-((1-(5-bromopyrimidin-2-yl)piperidin-4-yl)amino)-2-(2,4-difluorophenyl)-1-(1H-1,2,4-triazol-1-yl)butan-2-ol]	0.125 µg/mL (≈ 0.246 µM)	0.25 µg/mL (≈ 0.492 µM)	1 µg/mL (≈ 1.97 µM)	≤ 0.015 µg/mL	0.125 µg/mL (≈ 0.246 µM)	≤ 0.015 µg/mL	≤ 0.015 µg/mL	≤ 0.125 µg/mL	0.5 µg/mL (≈ 0.984 µM)
OC(Cn1cncn1)(Cn1cncn1)c1ccc(F)cc1F [Fluconazole, reference compound]	4 µg/mL (≈ 13.1 µM)	> 32 µg/mL	> 128 µg/mL	0.5 µg/mL (≈ 1.63 µM)	> 32 µg/mL	4 µg/mL (≈ 13.1 µM)	> 32 µg/mL	4 µg/mL (≈ 13.1 µM)	16 µg/mL (≈ 52.2 µM)
C[C@@H](c1ncncc1F)[C@](O)(Cn1cncn1)c1ccc(F)cc1F [Voriconazole, reference compound]	0.5 µg/mL (≈ 1.43 µM)	0.25 µg/mL (≈ 0.716 µM)	0.25 µg/mL (≈ 0.716 µM)	0.25 µg/mL (≈ 0.716 µM)	2 µg/mL (≈ 5.73 µM)	0.031 µg/mL (≈ 0.0887 µM)	0.5 µg/mL (≈ 1.43 µM)	≤ 0.125 µg/mL	0.125 µg/mL (≈ 0.358 µM)
